Laboratory results published in ChEMBL document CHEMBL3885861, “Open TG-GATES”.

Organism: Rattus norvegicus
Assay: Open TG-GATES - Regimen: Single
Format: toxicity, organism-based, Sprague-Dawley
Set-up: regimen Single, gender Male, age 6 weeks
Settings: in vivo, po, 200 mg/kg, route gavage, dose level Middle; for APTT / Bas / Eos / Fbg / Hb / Ht / Lym / MCH / MCHC / MCV / Mono / Neu / PT / Plat / RBC / Ret / WBC: tissue Blood; for KIDNEY_L / KIDNEY_R / KIDNEY_TOTAL: tissue Kidney; for LIVER: tissue Liver; for A/G / ALP / ALT / AST / BUN / CRE / Ca / Cl / DBIL / GLC / IP / K / LDH / Na / PL / RALB / TBIL / TC / TG / TP / gamma-GTP: tissue Plasma

## CCOC(=O)[C@H](CCc1ccccc1)N[C@@H](C)C(=O)N1CCC[C@H]1C(=O)O
3 h
  TERMINAL_BW: 221.1 g
  APTT: 15.6 s
  Bas: 0%
  Eos: 1%
  Fbg: 207 mg/dL
  Hb: 13.1 g/dL
  Ht: 39.7%
  Lym: 81.6%
  MCH: 22.2 pg
  MCHC: 33.1%
  MCV: 67.1 fL
  Mono: 5%
  Neu: 12.4%
  PT: 12 s
  Plat: 117.9 x10_4/uL
  RBC: 591.2 x10_4/ul
  Ret: 9.1%
  WBC: 93.8 x10_2/uL
  KIDNEY_L: 1 g
  KIDNEY_R: 1 g
  KIDNEY_TOTAL: 2.1 g
  LIVER: 10.4 g
  A/G: 1.8
  ALP: 823.4 IU/L
  ALT: 45.2 IU/L
  AST: 67 IU/L
  BUN: 21.2 mg/dL
  CRE: 0.5 mg/dL
  Ca: 10.8 mg/dL
  Cl: 107.2 meq/L
  DBIL: 0.01 mg/dL
  GLC: 205.4 mg/dL
  IP: 9.1 mg/dL
  K: 5.5 meq/L
  LDH: 101.8 IU/L
  Na: 139 meq/L
  PL: 129.8 mg/dL
  RALB: 3.4 g/dL
  TBIL: 0.3 mg/dL
  TC: 72.2 mg/dL
  TG: 82 mg/dL
  TP: 5.3 g/dL
  gamma-GTP: 1.6 IU/L
6 h
  TERMINAL_BW: 215 g
  APTT: 16.6 s
  Bas: 0%
  Eos: 1%
  Fbg: 208.6 mg/dL
  Hb: 13 g/dL
  Ht: 39.7%
  Lym: 75%
  MCH: 21.2 pg
  MCHC: 32.7%
  MCV: 64.7 fL
  Mono: 9.6%
  Neu: 14.4%
  PT: 11.9 s
  Plat: 109.6 x10_4/uL
  RBC: 615.4 x10_4/ul
  Ret: 8.9%
  WBC: 113.1 x10_2/uL
  KIDNEY_L: 1 g
  KIDNEY_R: 1 g
  KIDNEY_TOTAL: 1.9 g
  LIVER: 9.8 g
  A/G: 2.1
  ALP: 770.4 IU/L
  ALT: 43.2 IU/L
  AST: 63.2 IU/L
  BUN: 22 mg/dL
  CRE: 0.5 mg/dL
  Ca: 11 mg/dL
  Cl: 105.6 meq/L
  DBIL: 0.022 mg/dL
  GLC: 195.4 mg/dL
  IP: 10.4 mg/dL
  K: 5.1 meq/L
  LDH: 91.6 IU/L
  Na: 139 meq/L
  PL: 144.6 mg/dL
  RALB: 3.6 g/dL
  TBIL: 0.5 mg/dL
  TC: 79.2 mg/dL
  TG: 53.8 mg/dL
  TP: 5.3 g/dL
  gamma-GTP: 1.2 IU/L
9 h
  TERMINAL_BW: 214.6 g
  APTT: 15.7 s
  Bas: 0%
  Eos: 1.2%
  Fbg: 207.2 mg/dL
  Hb: 12.8 g/dL
  Ht: 39.2%
  Lym: 71.6%
  MCH: 21.4 pg
  MCHC: 32.6%
  MCV: 65.4 fL
  Mono: 10.2%
  Neu: 17%
  PT: 12.1 s
  Plat: 108.6 x10_4/uL
  RBC: 599.4 x10_4/ul
  Ret: 8.8%
  WBC: 88.4 x10_2/uL
  KIDNEY_L: 1.1 g
  KIDNEY_R: 1 g
  KIDNEY_TOTAL: 2.1 g
  LIVER: 8.8 g
  A/G: 2.1
  ALP: 931.6 IU/L
  ALT: 36.2 IU/L
  AST: 65.8 IU/L
  BUN: 25.8 mg/dL
  CRE: 0.4 mg/dL
  Ca: 10.8 mg/dL
  Cl: 108 meq/L
  DBIL: 0.03 mg/dL
  GLC: 189.4 mg/dL
  IP: 10.8 mg/dL
  K: 5.2 meq/L
  LDH: 83.8 IU/L
  Na: 139.4 meq/L
  PL: 120.4 mg/dL
  RALB: 3.5 g/dL
  TBIL: 0.4 mg/dL
  TC: 69.4 mg/dL
  TG: 32.2 mg/dL
  TP: 5.2 g/dL
  gamma-GTP: 2.2 IU/L
24 h
  TERMINAL_BW: 230.9 g
  APTT: 15.8 s
  Bas: 0%
  Eos: 1.8%
  Fbg: 222.8 mg/dL
  Hb: 13 g/dL
  Ht: 39.2%
  Lym: 71.2%
  MCH: 21.4 pg
  MCHC: 33.1%
  MCV: 64.8 fL
  Mono: 8.8%
  Neu: 18%
  PT: 10.8 s
  Plat: 115.7 x10_4/uL
  RBC: 606 x10_4/ul
  Ret: 8.6%
  WBC: 90.5 x10_2/uL
  KIDNEY_L: 1.1 g
  KIDNEY_R: 1 g
  KIDNEY_TOTAL: 2.1 g
  LIVER: 11.5 g
  A/G: 2
  ALP: 915.2 IU/L
  ALT: 38.6 IU/L
  AST: 67.6 IU/L
  BUN: 17.6 mg/dL
  CRE: 0.5 mg/dL
  Ca: 11 mg/dL
  Cl: 103.2 meq/L
  DBIL: 0 mg/dL
  GLC: 198 mg/dL
  IP: 8.4 mg/dL
  K: 5 meq/L
  LDH: 106.4 IU/L
  Na: 137.8 meq/L
  PL: 167.4 mg/dL
  RALB: 3.8 g/dL
  TBIL: 0.5 mg/dL
  TC: 91 mg/dL
  TG: 89 mg/dL
  TP: 5.7 g/dL
  gamma-GTP: 1.8 IU/L
